The values that follow come from patent publication US12065427B2, “Heterocyclic compounds capable of activating STING” (BOEHRINGER INGELHEIM INTERNATIONAL GMBH, priority 2021, dated 2024).

For orientation: Papp A→B means how fast a substance crosses the layer from the apical side. High values mean fast passage, low ones slow passage. As usually defined, the efflux ratio is a quotient of directional permeabilities that is used to spot active efflux. As a reminder, the EC50 is the concentration that produces a half-maximal response.

In brackets after ≈: the same amount, converted by molar mass.

Data set [1] in a line: Solubility measurements (HTS) at pH 6.8. The class given is physicochemical. Particulars: kinetic from dmso stock; aqueous McIlvaine buffer pH 6.8, 24 h at room temperature, from 10 mM DMSO stock; read-out: Soblubility. Here is the method:
Aqueous solubilities were determined from 10 mM stock solutions of the compounds in DMSO diluted to a final concentration of 250 μM with aqueous McIlvaine buffer at pH 6.8, or with acetonitrile/water (1:1) as a reference. Samples were shaken for 24 h at room temperature in 96-well plates (Whatman Uniplate® 96 wells, 750 μL, polypropylene, round bottom). The plate was then centrifuged at 3,000 rpm for 2 min. 250 μL of each sample were transferred to a Millipore MultiScreenHTS filter plate with a polycarbonate membrane, pore size 0.45 μm. Filtrates were collected by centrifugation at 3,000 rpm for 2 min. The dissolved concentrations were determined by UPLC/UV (Ultra-Performance Liquid Chromatography/ultraviolet) on a Waters ACQUITY UPLC® SQD system equipped with a Waters ACQUITY UPLC® BEH 2.1×50 mm C18 column, particle size 1.7 μm, using a short gradient with water/0.1% formic acid as solvent A and acetonitrile/0.1% formic acid as solvent B (5 to 95% B with 1.7 min total cycle time). Compounds signals were measured with a photodiode array UV detector operated at 254 nm. Solubilities were determined with a one point calibration by comparing peak areas relative to the reference standard using Waters Empower software.

Data set [2] is described as follows: in vitro. Particulars: human, Caco-2, pH 7.4.
The target of data set [3] is T1, STING HAQ-variant (Homo sapiens, UniProt Q86WV6, G230A/H232R/R293Q/R71H).
T1 construct: parental THP1-Blue™ ISG cell lines (which express endogenously HAQ); host or cells: THP1-Blue ISG (parental, endogenous HAQ) or STING-KO clone re-transduced with HAQ (MSCV-ires-GFP-Blasti)
T1 sequence (Q86WV6 whole entry R71H/G230A/H232R/R293Q): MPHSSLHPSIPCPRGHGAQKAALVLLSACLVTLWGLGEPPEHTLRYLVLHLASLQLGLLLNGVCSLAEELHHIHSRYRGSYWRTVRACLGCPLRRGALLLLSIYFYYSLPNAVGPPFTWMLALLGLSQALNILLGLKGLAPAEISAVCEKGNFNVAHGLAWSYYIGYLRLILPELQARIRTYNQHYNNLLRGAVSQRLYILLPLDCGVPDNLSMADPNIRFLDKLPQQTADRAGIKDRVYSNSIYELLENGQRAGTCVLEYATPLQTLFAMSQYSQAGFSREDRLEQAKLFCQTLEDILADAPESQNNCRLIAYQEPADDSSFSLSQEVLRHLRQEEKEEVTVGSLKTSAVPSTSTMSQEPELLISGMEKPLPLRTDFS
Kind of data set: IRF-inducible SEAP reporter assay in THP1-Blue ISG cells, STING HAQ-variant. Format: cell-based. The following applies: STING HAQ-variant (parental or re-introduced), 24 hours incubation. In outline:
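THP1-Blue ISG cells expressing STING HAQ, either endogenously (parental) or re-introduced after CRISPR knockout, were seeded at 10000 cells/well. They received 8-point compound dilutions (0.5% DMSO final) for 24 hours at 37° C. IRF-driven SEAP was read with Quanti-Blue at OD 620 nm after 30 minutes, and EC50 came from four-parameter fits.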
In general terms: A reporter such as luciferase makes a cellular process visible.

Data set [4] deals with Human STING (hSTING, residues 155-341). Kind of data set: Interaction with hSTING as determined by Differential Scanning Fluorimetry (DSF). Particulars: 100 μM test compounds, 5 μM target protein. Format: binding. In a few lines: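 Thermal shift of hSTING (residues 155-341, 5 μM) with test compounds at 100 μM in 20 mM Tris, 150 mM NaCl, pH 7.5, using 5× SYPRO Orange. Ramped 25 to 95 °C at 0.5 °C per cycle (15 s/cycle) by real-time PCR fluorescence. Tm from duplicate melting curves, averaged.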
Background: Differential scanning fluorimetry follows unfolding on heating by fluorescence.

The target of data set [5] is T2, STING R293Q-variant (Homo sapiens, UniProt Q86WV6, H232R/R293Q).
T2 construct: expressed in transfected cells; host or cells: THP1-Blue ISG hSTING KO clone, retroviral MSCV-ires-GFP-Blasti
T2 sequence (Q86WV6 whole entry H232R/R293Q): as the sequence (Q86WV6 whole entry R71H/G230A/H232R/R293Q) above, with H71R, A230G counted along it
Kind of data set: IRF-inducible SEAP reporter assay in THP1-Blue ISG cells, STING R293Q-variant. The class given is cell-based. Particulars: 24 hours incubation. In a few lines: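 THP1-Blue ISG cells with endogenous STING knocked out (CRISPR) and retrovirally re-expressing human STING R293Q; 10000 cells/well, compound 24 h at 37 °C, 0.5% DMSO final. SEAP read by Quanti-Blue (30 min, OD 620 nm); EC50 and Hill slope from 8-point four-parameter fit.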

For data set [6], the target named is T3, STING AQ-variant (Homo sapiens, UniProt Q86WV6, G230A/H232R/R293Q).
T3 construct: expressed in transfected cells; host or cells: THP1-Blue ISG hSTING KO clone, retroviral MSCV-ires-GFP-Blasti
T3 sequence (Q86WV6 whole entry G230A/H232R/R293Q): as the sequence (Q86WV6 whole entry R71H/G230A/H232R/R293Q) above, with H71R counted along it
Put plainly: IRF-inducible SEAP reporter assay in THP1-Blue ISG cells, STING AQ-variant. The class given is cell-based. Particulars: 24 hours incubation. In outline:
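THP1-Blue ISG cells with endogenous STING knocked out by CRISPR and re-expressing the human STING AQ variant; compounds in 8-point dilution, final DMSO 0.5%, 24 h at 37 °C. SEAP read after 30 min with Quanti-Blue as OD 620 nm; EC50 and Hill slope from four-parameter fits.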

Data set [7] concerns the target T4, STING H232R-variant (Homo sapiens, UniProt Q86WV6, H232R).
T4 construct: expressed in transfected cells; host or cells: THP1-Blue ISG hSTING KO clone, retroviral MSCV-ires-GFP-Blasti
Kind of data set: IRF-inducible SEAP reporter assay in THP1-Blue ISG cells, STING H232R-variant. The class given is cell-based. The following applies: STING H232R-variant (WT), 24 hours incubation. In outline:
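THP1-Blue ISG cells with endogenous STING deleted by CRISPR and retrovirally re-expressing human STING H232R; 8-point compound dilutions, 0.5% DMSO final, 24 h at 37 °C. SEAP read by Quanti-Blue, 30 min, OD 620 nm; EC50 and Hill slope from four-parameter fit.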

Data set [8] concerns the target T5, STING R232H-variant (Homo sapiens, UniProt Q86WV6).
T5 construct: expressed in transfected cells; host or cells: THP1-Blue ISG hSTING KO clone, retroviral MSCV-ires-GFP-Blasti
Kind of data set: IRF-inducible SEAP reporter assay in THP1-Blue ISG cells, STING R232H-variant. Format: cell-based. The following applies: 24 hours incubation. In a few lines:
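THP1-Blue ISG cells, endogenous STING knocked out by CRISPR and re-expressing hSTING R232H, with IRF-inducible SEAP reporter. Treated 24 h at 37 °C with 8-point compound dilutions (0.5% DMSO final); SEAP read by Quanti-Blue OD 620 nm after 30 min. EC50 from four-parameter fit.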

Data set [9] is described as follows: Cellular permeability measurements, bidirectional Caco-2 assay. Particulars: human, Caco-2, pH 7.4. (In general: Caco-2 cells form a polarised layer with tight junctions and transporters.)

T4 sequence (Q86WV6 whole entry H232R): as the sequence (Q86WV6 whole entry R71H/G230A/H232R/R293Q) above, with H71R, A230G, Q293R counted along it
T5 sequence (Q86WV6 whole entry, stated change not applied): as the sequence (Q86WV6 whole entry R71H/G230A/H232R/R293Q) above, with H71R, A230G, R232H, Q293R counted along it

For `Cc1cccc2c(-c3cccc4c3OCO4)nn(-c3ccc(N4CC5C(C4)C5C(=O)O)nc3)c12` (stereo not drawn) [compound 30, 3-(5-[3-(2H-1,3-benzodi-oxol-4-yl)-7-methyl-1H-in-dazol-1-yl]pyridin-2-yl}-3-azabicyclo[3.1.0]hexane-6-carboxylic acid], the solubility kinetic at 24 h in [1] worked out at 42 µg/mL (≈ 92.4 µM). Besides, in data set [2], the apical-to-basolateral permeability (Papp A→B) at 10 μM turned out to be 14 ×10⁻⁶ cm/s and the efflux ratio at 10 μM is 0.9. The 50% effective concentration (EC50) in data set [3] was 6100 nM. Moreover, the “thermal shift (ΔTm)” value in data set [4] is recorded as 20 K.

`Cn1cc2c(-c3nn(-c4ccc(N5CCC(C(=O)O)CC5)nc4)c4c(C(F)(F)F)cccc34)cccc2n1` [Example #67, 1-{5-[2′-methyl-7-(trifluo-romethyl)-1H,2′H-[3,4′-biindazol]-1-yl]pyridin-2-yl}piperidine-4-carboxylic acid]: the solubility kinetic at 24 h in data set [1] is 82 µg/mL (≈ 158 µM). The EC50 in data set [5] stood at 2100 nM; in data set [3], 2200 nM; in data set [6] it was 2300 nM; in data set [7] it was 700 nM; in [8], 800 nM. Also, the Papp A→B at 10 μM in data set [2] was 16 ×10⁻⁶ cm/s. In addition, the efflux ratio at 10 μM in data set [2] amounted to 1.2. Further, the “thermal shift (ΔTm)” value in [4] is 23 K.

Take `Cc1cccc2c(-c3cccc4nn(C)cc34)nn(-c3ccc(N4CC5C(C4)C5C(=O)O)nc3)c12` (stereo not drawn) [Example #59, 3-(5-{2′,7-dimethyl-1H,2′H-[3,4′-biindazol]-1-yl}pyridin-2-yl)-3-azabicy-clo[3.1.0]hexane-6-car-boxylic acid]: the solubility kinetic at 24 h in data set [1] was found to be 66 µg/mL (≈ 142 µM). The concentration giving a half-maximal response (EC50) is 200 nM in data set [5]; 200 nM in data set [3]; 100 nM in [6]; 100 nM in data set [7]; 100 nM in [8]. The same compound came in with a Papp A→B at 10 μM in data set [2] of 11 ×10⁻⁶ cm/s. Also, the efflux ratio at 10 μM in [2] is 2.5. Further, the “thermal shift (ΔTm)” value in [4] is recorded as 21 K.

With `Cc1cccc2c(-c3cccc4cnccc34)nn(-c3ccc(N4CCC(C(=O)O)CC4)nc3)c12` [compound 62, 1-{5-[3-(isoquinolin-5-yl)-7-methyl-1H-indazol-1-yl]pyridin-2-yl}piperidine-4-carboxylic acid], the solubility kinetic at 24 h in data set [1] was determined as 49 µg/mL (≈ 106 µM). Moreover, in data set [2], the apparent permeability from apical to basolateral (Papp A→B) at 10 μM was 11 ×10⁻⁶ cm/s and the efflux ratio at 10 μM was determined as 1.2. The half-maximal effective concentration (EC50) in data set [3] was 3100 nM. Also, the “thermal shift (ΔTm)” value in data set [4] is on record as 20 K.

Regarding `Cc1cccc2c(-c3cccc4nn(C)cc34)nn(-c3ccc(N4CCC(C(=O)O)CC4)nc3)c12` [Example #57, 1-(5-(2′,7-dimethyl-1H,2′H-[3,4′-biindazol]-1-yl)pyridin-2-yl)piperidine-4-carboxylic acid], in [1], the solubility kinetic at 24 h was found to be 80 µg/mL (≈ 171 µM). Further, the EC50 in data set [5] came to 600 nM; in data set [3], 700 nM; in data set [6] it was 300 nM; in data set [7], 200 nM; in data set [8], 200 nM. Moreover, the Papp A→B at 10 μM in data set [2] was 15 ×10⁻⁶ cm/s. Also, the efflux ratio at 10 μM in [2] amounted to 1.2. The “thermal shift (ΔTm)” value in [4] stood at 17 K.

Regarding `COc1cccc2c(-c3cccc4nn(C)cc34)nn(-c3ccc(N4CC5C(C4)C5C(=O)O)nc3)c12` (stereo not drawn) [compound 29, 3-(5-{7-methoxy-2′-methyl-1H,2′H-[3,4′-biindazol]-1-yl}pyridin-2-yl)-3-azabicyclo[3.1.0]hex-ane-6-carboxylic acid], the solubility kinetic at 24 h in data set [1] is 63 µg/mL (≈ 131 µM). Moreover, the EC50 in [5] was 600 nM; in data set [3], 800 nM; in data set [6], 700 nM; in data set [7], 200 nM; in [8] it was 600 nM. The “thermal shift (ΔTm)” value in data set [4] turned out to be 22 K.

As for `Cc1cc(C)c2c(c1)c(-c1cccc3nn(C)cc13)nn2-c1ccc(N2CC3C(C2)C3C(=O)O)nc1` (stereo not drawn) [compound 69, 3-(5-{2′,5,7-trimethyl-1H,2′H-[3,4′-biindazol]-1-yl}pyridin-2-yl)-3-azabicy-clo[3.1.0]hexane-6-car-boxylic acid], in [1], the solubility kinetic at 24 h amounted to 70 µg/mL (≈ 146 µM). The EC50 in data set [5] was 700 nM; in data set [3] it was 1400 nM; in data set [6] it was 700 nM; in [7], 300 nM; in data set [8], 300 nM. In data set [2], this compound yielded an apparent permeability from apical to basolateral (Papp A→B) at 10 μM of 14 ×10⁻⁶ cm/s. Moreover, the efflux ratio at 10 μM in [2] stood at 1.

Consider `Cn1cc2c(-c3nn(-c4ccc(N5CC6C(C5)C6C(=O)O)nc4)c4c(Cl)cccc34)cccc2n1` (stereo not drawn) [compound 26, 3-(5-{7-chloro-2′-methyl-1H,2′H-[3,4′-biindazol]-1-yl}pyridin-2-yl)-3-azabicy-clo[3.1.0]hexane-6-carbox-ylic acid], for which, in data set [1], the solubility kinetic at 24 h was 60 µg/mL (≈ 124 µM). In addition, the EC50 in [5] amounted to 600 nM; in data set [3], 900 nM; in [6] it was 700 nM; in data set [7], 200 nM; in [8] it was 200 nM.

For `Cc1cccc2c(-c3cccc4nn(C)cc34)nn(-c3ccc(N4CC5(COC5)C4)nc3)c12` [compound 3, 2′,7-dimethyl-1-(6-{2-oxa-6-azaspiro[3.3]heptan-6-yl}pyridin-3-yl)-1H,2′H-3,4′-biindazole], in data set [3], the half-maximal effective concentration (EC50) was determined as 3000 nM. Also, in [4], the “thermal shift (ΔTm)” value amounted to 20 K. Moreover, the efflux ratio at 10 μM in data set [9] came to 0.6.

`Cc1cccc2c(-c3cccc4cnc(N(C)C)cc34)nn(-c3ccc(N4CCC(C(=O)O)CC4)nc3)c12` [Example #63, 1-(5-{3-[3-(dimethyla-mino)isoquinolin-5-yl]-7-methyl-1H-indazol-1-yl}pyridin-2-yl)piperidine-4-carboxylic acid]: the solubility kinetic at 24 h in data set [1] was 75 µg/mL (≈ 148 µM). Moreover, in [2], the Papp A→B at 10 μM turned out to be 19 ×10⁻⁶ cm/s and the efflux ratio at 10 μM worked out at 0.6. Further, the EC50 in [3] turned out to be 4900 nM. In addition, the “thermal shift (ΔTm)” value in data set [4] was 19 K.
